Here are results for eight molecules from patent US5990170A, “Therapeutic use of mono and bicarboxylic acid amides active at the peripheral cannabinoid receptor” (Lifegroup S.p.A., priority 1994, dated 1999).

“Also recorded” adds a separate entry of the source. Like-named read-outs stand apart in the source and are kept apart here.

Data set [1] concerns the target T1, CB2 receptor (RBL-2H3 cell membranes) (Rattus norvegicus, UniProt Q9QZN9).
T1 construct: Preparation of Plasmatic Membranes of RBL-2H3 Cells; endogenous in cells; host or cells: RBL-2H3 (rat basophilic leukemia) cell membranes
T1 sequence (Q9QZN9 1-360): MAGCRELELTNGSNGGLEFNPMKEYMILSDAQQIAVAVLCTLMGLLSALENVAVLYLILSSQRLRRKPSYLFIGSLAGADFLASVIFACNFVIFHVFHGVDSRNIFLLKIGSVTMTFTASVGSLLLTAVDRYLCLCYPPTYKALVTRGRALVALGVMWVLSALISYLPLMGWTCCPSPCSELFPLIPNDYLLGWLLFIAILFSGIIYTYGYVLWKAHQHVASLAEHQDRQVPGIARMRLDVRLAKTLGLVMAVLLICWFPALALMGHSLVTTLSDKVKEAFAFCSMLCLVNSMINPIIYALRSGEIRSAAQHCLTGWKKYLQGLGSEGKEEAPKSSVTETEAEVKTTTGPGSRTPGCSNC
Description: Saturation curve of labelled receptor agonist 3H-WIN 55,212-2 on RBL-2H3 cell membranes. The class given is binding. The following applies: 0.5 to 20 nM 3H-WIN 55,212-2; 30 μg membrane proteins; 30° C., 60 min. The procedure:
(§1) RBL-2H3 cells (100×10^6), frozen at -80° C., were thawed with 4 ml of Tris-HCl buffer solution 50 mM (pH 7.4), added with 0.25% w/v of Tripsin inhibitor, TYPE II-S: SOY BEAN® (distributed by Sigma). The cells were resuspended in the buffer and homogenized. The homogenate was centrifuged at 1500×g at 4° C. for 10 min. The supernatant obtained was collected and the precipitate was resuspended in 4 ml of the previous buffer. The resuspended precipitate was homogenized and centrifuged again at 1500×g at 4° C. for 5-10 min. The resulting supernatant was combined to the supernatant previously obtained and centrifuged at 5000×g for 10 min. After centrifugation, the supernatant was collected and further centrifuged at 40,000×g at 4° C. for 30 min. The resulting precipitate was resuspended in 0.5 ml of the buffer solution described above, with addition of 1% Bovine Serum Albumin fatty acid free. The obtained suspension was centrifuged at 40,000×g at 4° C. for 30 min. The resulting precipitate was collected and resuspended in buffer solution containing 50 mM Tris HCl, 1 mM Tris-EDTA, 3 mM MgCl2, pH 7.4, in order to obtain a proteic concentration of 1 μg/μl approx. This preparation may be used fresh, or frozen at -80° C. and utilized within few days.

Data set [2] addresses T1, CB2 receptor (RBL-2H3 cell membranes). Description: Competitive displacement of 3H-WIN 55,212-2 binding to RBL-2H3 cell membranes. The following applies: for inhibition at 10 µM: read-out: % Displacement. The procedure:
as §1
Non-radioactive WIN 55,212-2 (1 μM) was used to inhibit specific binding. […] The competitors were added to the binding mixture prior to the labelled ligand. In both cases, for an evaluation of the reference specific binding, ethanol and DMSO were added at the same final concentration to the total binding and to the aspecific one, also in the absence of competitors.
WIN 55,212-2 was used at a concentration of 3 μM, whereas the other compounds were used at a concentration of 10 μM.
Incubation was carried out in the presence of 1% DMSO. The values of Inhibitory Concentration 50 (IC50) are expressed as means ± SEM, after the number of experiments reported hereinbelow.

The subject of a further data set is RBL-2H3 cells. The experiment in a line: Inhibition of 3H-serotonin release induced by ADNP/DNP-HSA immunogenic stimulation in RBL-2H3 cells. The note with it: for 3H-serotonin net release inhibition (%): + anandamide (12.5 μM) (Table 4); for inhibition at 100 µM: 100 μM (Table 8); for inhibition at 10 µM: RBL-2H3, 10 μM, 1% DMSO and 0.1% ethanol (Table 4); for inhibition at 12.5 µM: RBL-2H3, read-out: 3H-serotonin net release inhibition (%), 12.5 μM. The class given is cell-based, rat.

For data set [3], the target named is T1, CB2 receptor (RBL-2H3 cell membranes). The experiment in a line: Competitive displacement of 3H-WIN 55,212-2 binding to RBL-2H3 cell membranes. The note with it: competitor 10 μM.
A short description of data set [4]: Solubility in water and organic solvents.
A short description of a further data set: physchem. The following applies: chloroform, organic solvent or mixture.
Data set [5] concerns CB1 central receptor. The following applies: result in words; Devane et al., 1992; cited from earlier work.
In data set [6] the test system is CB1 central receptor. The note with it: result in words; cited from earlier work.
In the next data set the test system is activated macrophages. The following applies: result in words; Fischer-Stenger et al., 1993; cited from earlier work.
Setting [7] is: Rattus norvegicus, RBL-2H3, 0.25 h, 0.1% DMSO and 0.1% ethanol (Table 3), read-out: ED50 (the source's name).
Setting [8] is: Rattus norvegicus, RBL-2H3, read-out: 3H-serotonin net release inhibition (%).
The mark [9] stands for this setting: read-out: ED50, inhibition of 3H-serotonin release, + anandamide (12.5 μM) (Table 5), 15 min.
Setting [10] is: dmso, organic solvent or mixture.
The mark [11] stands for this setting: ethanol, organic solvent or mixture.
Where [12] appears, read: Rattus norvegicus, RBL-2H3, read-out: 3H-serotonin release inhibition %, 1% DMSO.

The molecule `Cc1c(C(=O)c2cccc3ccccc23)c2cccc3c2n1C(CN1CCOCC1)CO3` (stereo not shown) [3H-WIN 55,212-2] came in with a Bmax in [1] of 100 to 250 pM.

Consider `CCCCCCCCCCCCCCCC(=O)N[C@@H](CO)c1ccccc1` [Example 1, N-palmitoyl-[(R)-2-amino-2-phenylethanol]], for which the IC50 was determined as 0.0004 µM in data set [2], 0.6 µM with RBL-2H3 cells (setting [7]) and 4 µM with RBL-2H3 cells (setting [9]). Besides, the inhibition at 10 µM in data set [2] stood at 77%. In the data set with RBL-2H3 cells (3 μM), the “3H-serotonin net release inhibition (%)” value is recorded as 39%. Also, in the data set on RBL-2H3 cells (Rattus norvegicus, RBL-2H3, 0.25 h, 3 μM, 0.1% DMSO and 0.1% ethanol (Table 3), read-out: 3H-serotonin net release (%)), the activity at 3 µM worked out at 0%. The inhibition at 3 µM in the data set on RBL-2H3 cells (setting [8]) came to 100%. The “effect of anandamide co-incubation on the ability to inhibit serotonin release” value in the data set with RBL-2H3 cells (co-incubation with anandamide, in words) is given as “reduces the ability”. Further, the “functional effect following receptor activation (serotonin release)” value with RBL-2H3 cells (result in words) was “can inhibit the effects induced by mast cell activation and exert an effect that is higher than or comparable to the one of cannabinoids”. This molecule showed a Specific binding in data set [3] (0.1% DMSO) of 325. Besides, the solubility in data set [4] (setting [10]) and in data set [4] (setting [11]) was over 10000 µg/mL each time. Besides, in [4] (result in words), the solubility in water entry is recorded as “scarcely soluble”.

Regarding `CCCCCCCCCCCCCCCCCC(=O)NCCO` [Example 23, N-(2-hydroxyethyl)-stearoylamide], the inhibition at 60 µM with RBL-2H3 cells (Rattus norvegicus, RBL-2H3, read-out: 3H-serotonin release inhibition %, 0.2% DMSO, 60 μM (Table 8)) was 60%. In addition, in the data set on RBL-2H3 cells (setting [12]), the inhibition at 100 µM turned out to be 91%. In the data set with RBL-2H3 cells (Rattus norvegicus, RBL-2H3, read-out: EC50, concentration inhibiting by 50% the net release of 3H serotonin, 1% DMSO, 15 minutes release period (Table 9)), the EC50 is 11 µM. Moreover, the IC50 came out at 10.1 µM in the data set with RBL-2H3 cells (setting [9]) and 2.4 µM in the data set with RBL-2H3 cells (read-out: ED50, inhibition of 3H-serotonin release, - anandamide (Table 5), 15 min). Also, the solubility in the data set “physchem” is over 5000 µg/mL.

Turning to `CCCCCCCCCCCCCCCC(=O)NCCO` [Example 25, N-palmitoylethanolamide], the IC50 in data set [2] was 0.001 ± 0.00055 µM; with RBL-2H3 cells (Rattus norvegicus, RBL-2H3, 0.25 h, 1% DMSO and 0.1% ethanol (Table 3), read-out: ED50 (the source's name)), 2.6 µM. For the same molecule, the inhibition at 10 µM in data set [2] was found to be 23%; in the data set on RBL-2H3 cells (Rattus norvegicus, + anandamide (12.5 μM), read-out: 3H-serotonin net release inhibition (%)), 0%; with RBL-2H3 cells (Rattus norvegicus, - anandamide, read-out: 3H-serotonin net release inhibition (%)), 100%. The activity at 10 µM in the data set on RBL-2H3 cells (Rattus norvegicus, RBL-2H3, 0.25 h, 10 μM (minimum effective concentration), 1% DMSO and 0.1% ethanol (Table 3), read-out: 3H-serotonin net release (%)) was determined as 0%. The “functional effect following receptor activation (serotonin release)” value in the data set on RBL-2H3 cells (result in words) is “can inhibit the effects induced by mast cell activation and exert an effect that is higher than or comparable to the one of cannabinoids”; in the data set on RBL-2H3 cells (result in words, listed as palmitoylethanolamide), “capable of functionally activating the peripheral receptor”. The Specific binding in data set [3] (0.1% DMSO) came to 1103. The “binding to the central receptor” value in the data set with CB1 central receptor [5] is given as “not able to bind to the central receptor”. Moreover, in [4] (result in words), the “solubility in organic solvents” value was “in hot MetOH, CHCl3, DMSO”. In data set [4] (result in words), the solubility in water result is reported as “insoluble”.

Regarding `O=C(/C=C/CCCCCCCCC(=O)NCCO)NCCO` [Example 26, N,N'-bis(2-hydroxyethyl)-trans-2-dodecenediamide], in data set [2], the inhibition at 10 µM turned out to be 72%. Further, in the data set with RBL-2H3 cells (50 μM), the “3H-serotonin net release inhibition (%)” value came out at 48%. In addition, the activity at 50 µM with RBL-2H3 cells (Rattus norvegicus, RBL-2H3, 0.25 h, 50 μM, 0.1% DMSO and 0.1% ethanol (Table 3), read-out: 3H-serotonin net release (%)) worked out at 21%. For the same molecule, the values for the IC50 in the data set with RBL-2H3 cells (setting [7]) and in the data set on RBL-2H3 cells (setting [9]) were 28 µM and 50 µM, respectively. Besides, the inhibition at 100 µM in the data set with RBL-2H3 cells (Rattus norvegicus, RBL-2H3, read-out: 3H-serotonin release inhibition %, 0.2% DMSO) is over 95%; in the data set with RBL-2H3 cells (setting [12]), over 95%. Besides, in the data set with RBL-2H3 cells (setting [8]), the inhibition at 50 µM stood at 79%. Further, the Specific binding in data set [3] (0.1% DMSO) turned out to be 402. Besides, the solubility in [4] (setting [10]), in [4] (setting [11]) and in data set [4] (water) was over 10000 µg/mL each time.

As to `CCCCCCCCCCCCCCCC(=O)NCCOP(=O)(O)O` [Example 27, N-palmitoylethanolamide phosphate], the IC50 in data set [2] amounted to 0.0076 µM; with RBL-2H3 cells (setting [7]), 3.8 µM; in the data set on RBL-2H3 cells (setting [9]) it was 9.5 µM. For the same molecule, in data set [2], the inhibition at 10 µM was 42%. Also, the “3H-serotonin net release inhibition (%)” value in the data set with RBL-2H3 cells (7.5 μM) was 46%. Moreover, the activity at 7.5 µM in the data set on RBL-2H3 cells (Rattus norvegicus, RBL-2H3, 0.25 h, 7.5 μM, 0.1% DMSO and 0.1% ethanol (Table 3), read-out: 3H-serotonin net release (%)) came out at 0%. Further, in the data set on RBL-2H3 cells (setting [8]), the inhibition at 7.5 µM is 100%. Also, the “functional effect following receptor activation (serotonin release)” value in the data set on RBL-2H3 cells (result in words) is “can inhibit the effects induced by mast cell activation and exert an effect that is higher than or comparable to the one of cannabinoids”. In [3] (0.1% DMSO), this molecule displayed a Specific binding of 843. In addition, the solubility in [4] (setting [10]) is over 10000 µg/mL; in data set [4] (phosphate buffer, pH 7.4, aqueous buffer), over 1000 µg/mL. In [4] (result in words), the solubility in water result was “scarcely soluble”.

Turning to `CCCCC/C=C\C/C=C\C/C=C\C/C=C\CCCC(=O)NCCO` [anandamide, arachidonylethanolamide, reference compound], the inhibition at 10 µM in data set [2] worked out at 95%. Further, in data set [2] (result in words), the “binding to the peripheral receptor” value is “able to bind to the receptor and to compete; also recorded: having binding affinity for the peripheral receptor”. The inhibition at 12.5 µM in the data set with RBL-2H3 cells (Rattus norvegicus, + WIN 55,212-2 (30 μm) (Table 6)) was 15%. The inhibition at 12.5 µM with RBL-2H3 cells (Rattus norvegicus, - WIN (Table 6)) turned out to be 7%. Further, the “3H-serotonin net release (%)” value with RBL-2H3 cells (concentration not given, 0.1% DMSO and 0.1% ethanol (Table 3), 15 min) is recorded as 100%. In the data set with RBL-2H3 cells (result in words), the “antagonism of the protective effects of cannabinoids” value is recorded as “competitive antagonism on the peripheral receptor” and the “functional effect following receptor activation (serotonin release)” value was “unable to affect serotonin release; also recorded: is not able to induce biological effects”. Also, in data set [3] (0.1% ethanol), the Specific binding stood at 99. In the data set on CB1 central receptor [6], the “functional activation of CB1 central receptor” value is reported as “can functionally activate CB1 central receptor”.

Consider `CCCCCc1cc(O)c2c(c1)OC(C)(C)[C@@H]1CCC(C)=C[C@@H]21` [Δ9-THC, Δ9-tetrahydrocannabinol, reference compound], for which, in the data set with RBL-2H3 cells (Rattus norvegicus, RBL-2H3, 0.25 h, read-out: 3H-serotonin net release (%)), the activity at 25 µM amounted to 27%. Moreover, the IC50 with RBL-2H3 cells (Rattus norvegicus, RBL-2H3, 0.25 h, read-out: ED50) stood at 5 µM. The inhibition at 25 µM with RBL-2H3 cells (Rattus norvegicus, RBL-2H3, read-out: 3H-serotonin net release inhibition (%), 25 μM, - anandamide (Table 4)) stood at 73%. The “functional effect following receptor activation (serotonin release)” value with RBL-2H3 cells (result in words) was “able to inhibit, in a concentration-dependent way, RBL cells immunogenic activation”. For the same molecule, in the data set on activated macrophages, the “effect on cytolytic activity of activated macrophages” value is “decreases the cytolytic activity of activated macrophages”.

Usually solubility stands for the concentration that dissolves in the medium under given conditions.
